This note sets out measurements from patent publication US5373015A, “Fused pyridine derivatives useful as angiotensin II antagonists” (Imperial Chemical Industries PLC, priority 1991, dated 1994).

In the assay the target is T1, AII receptors (Cavia porcellus, UniProt Q9WV26).
T1 construct: from tissue; host or cells: guinea pig adrenal gland, cell surface membrane fraction
T1 sequence (Q9WV26 1-359): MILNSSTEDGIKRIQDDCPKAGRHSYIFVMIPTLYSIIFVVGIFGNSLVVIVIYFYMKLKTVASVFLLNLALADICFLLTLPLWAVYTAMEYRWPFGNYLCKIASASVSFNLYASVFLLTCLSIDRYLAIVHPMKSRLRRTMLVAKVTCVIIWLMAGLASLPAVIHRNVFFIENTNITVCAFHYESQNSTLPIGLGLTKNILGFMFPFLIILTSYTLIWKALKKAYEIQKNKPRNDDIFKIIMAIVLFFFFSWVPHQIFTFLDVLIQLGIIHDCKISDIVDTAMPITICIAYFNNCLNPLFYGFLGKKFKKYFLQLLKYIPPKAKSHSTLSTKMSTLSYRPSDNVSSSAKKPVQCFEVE
Nature of the assay: Test A: displacement of radiolabelled AII binding from guinea pig adrenal gland membrane fraction. The following applies: guinea pig adrenal gland membranes; read-out: IC50 (concentration for 50% displacement of radiolabelled AII binding). As to the method: This in vitro procedure involves the incubation of the test compound initially at a concentration of 100 micromolar (or less) in a buffered mixture containing fixed concentrations of radiolabelled AII and a cell surface membrane fraction prepared from a suitable angiotensin target tissue. In this test, the source of cell surface membranes is the guinea pig adrenal gland which is well known to respond to AII. Interaction of the radiolabelled AII with its receptors (assessed as radiolabel bound to the particulate membrane fraction following removal of unbound radiolabel by a rapid filtration procedure such as is standard in such studies) is antagonized by compounds which also bind to the membrane receptor sites and the degree of antagonism (observed in the test as displacement of membrane-bound radioactivity) is determined readily by comparing the receptor-bound radioactivity in the presence of the test compound at the specified test concentration with a control value determined in the absence of the test compound. Using this procedure compounds showing at least 50% displacement of radiolabelled AII binding at a concentration of 10^4 M are retested at lower concentrations to determine their potency. […]

Take `CCc1cc2c(ccc(=O)n2Cc2ccc(OC(C(=O)O)c3ccccc3)cc2)c(CC)n1` (stereo not shown) [Example 2]: the IC50 stood at 0.27 µM.
